Here are results for 12 compounds from patent publication US10399974B2, “N2-phenyl-pyrido[3,4-D]pyrimidine-2, 8-diamine derivatives and their use as Mps1 inhibitors” (Cancer Research Technology Limited, priority 2014, dated 2019).

The target of this assay is full length MPS1 (Homo sapiens (Human), UniProt P33981). Briefly: Measurement of Inhibition of MPS1 Kinase. It counts as biochemical. The conditions noted are these: full length MPS1 12.5 nM or 3 nM, H236 peptide 5 μM, ATP 10 μM, 60 min at room temperature, Caliper EZ reader II; read-out: MPS1 IC50. The procedure: Measurement of Inhibition of MPS1 Kinase
Sequence of full length MPS1 (P33981 whole entry): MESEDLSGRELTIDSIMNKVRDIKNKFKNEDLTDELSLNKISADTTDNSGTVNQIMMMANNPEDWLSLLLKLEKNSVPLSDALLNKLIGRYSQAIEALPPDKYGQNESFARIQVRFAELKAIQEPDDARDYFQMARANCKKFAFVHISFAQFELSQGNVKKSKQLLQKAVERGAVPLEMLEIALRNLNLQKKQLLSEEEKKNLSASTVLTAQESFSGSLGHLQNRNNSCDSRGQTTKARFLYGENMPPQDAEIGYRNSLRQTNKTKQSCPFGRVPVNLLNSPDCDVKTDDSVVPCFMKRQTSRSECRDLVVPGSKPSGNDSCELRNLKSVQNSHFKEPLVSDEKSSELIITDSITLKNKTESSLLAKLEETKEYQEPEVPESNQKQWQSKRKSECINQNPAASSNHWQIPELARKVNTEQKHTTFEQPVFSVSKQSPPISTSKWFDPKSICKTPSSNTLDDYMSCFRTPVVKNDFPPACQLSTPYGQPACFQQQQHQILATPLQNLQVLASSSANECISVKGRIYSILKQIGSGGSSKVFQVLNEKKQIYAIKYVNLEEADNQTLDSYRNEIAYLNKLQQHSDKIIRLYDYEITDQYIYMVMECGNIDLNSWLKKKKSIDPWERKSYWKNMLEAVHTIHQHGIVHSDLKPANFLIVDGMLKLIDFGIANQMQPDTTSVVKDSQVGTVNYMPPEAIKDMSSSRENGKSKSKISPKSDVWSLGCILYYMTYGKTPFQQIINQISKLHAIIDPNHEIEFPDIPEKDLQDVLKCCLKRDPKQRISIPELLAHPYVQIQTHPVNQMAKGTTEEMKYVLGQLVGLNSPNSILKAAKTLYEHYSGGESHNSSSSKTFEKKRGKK
(5 μM), ATP (10 μM), either DMSO (1% v/v) or the test compound (in the range 0.25 nM-100 μM in 1% DMSO) and assay buffer (50 mM HEPES (pH 7.0), 0.02% NaN3, 0.01% BSA, 0.1 mM Orthovandate, […], 1 μM DTT, Roche protease inhibitor). The reaction was carried out for 60 min at room temperature and stopped by the addition of buffer (10 μl) containing 20 mM EDTA, 0.05% (v/v) Brij-35, in 0.1M HEPES-buffered saline (Free acid, Sigma, UK). The plate was read on a Caliper EZ reader II (Caliper Life Sciences).
The reader provides a Software package (‘Reviewer’) which converts the peak heights into % conversion by measuring both product and substrate peak and also allows selection of control well which represent 0% and 100% inhibition, respectively. The % inhibition of the compounds is calculated relative to the means of selected control wells. IC50s are determined by testing the compounds at a range of concentrations from 0.25 nM-100 μM. The % inhibitions at each concentration are then fitted to a 4 parameter logistic fit: y=(a+((b−a)/(1+((c/x^d)))) where a=asym min, b=asym max, c=IC50 and d=hill coefficient
For `CCOc1cc(-c2nncn2C)ccc1Nc1ncc2cc(C)nc(N3CCOC(C)C3)c2n1` (racemic) [Example 48, Racemic-N-(2-ethoxy-4-(4-methyl-4H-1,2,4-triazol-3-yl)phenyl)-6-methyl-8-(2-methylmorpholino)pyrido[3,4-d]pyrimidin-2-amine], the IC50 (as a rule, the concentration at which inhibition is half-maximal) stood at 3 nM.

On to `CCOc1cc(-c2nncn2C)ccc1Nc1ncc2cc(C)nc(NC3CCOCC3)c2n1` [Example 6, N2-(2-ethoxy-4-(4-methyl-4H-1,2,4-triazol-3-yl)phenyl)-6-methyl-N8-(tetrahydro-2H-pyran-4-yl)pyrido[3,4-d]pyrimidine-2,8-diamine], for which the IC50 worked out at 5 nM.

As for `CCOc1cc(-c2nncn2C)ccc1Nc1ncc2cc(C)nc(N3CC(N(C)C)C3)c2n1` [Example 51, 8-(3-(dimethylamino)azetidin-1-yl)-N-(2-ethoxy-4-(4-methyl-4H-1,2,4-triazol-3-yl)phenyl)-6-methylpyrido[3,4-d]pyrimidin-2-amine], the 50% inhibitory concentration (IC50) was 6 nM.

Consider `COc1cc(-c2ccnn2C)ccc1Nc1ncc2cc(C)nc(NCC(C)(C)C)c2n1` [Example 13, N2-(2-methoxy-4-(1-methyl-1H-pyrazol-5-yl)phenyl)-6-methyl-N8-neopentylpyrido[3,4-d]pyrimidine-2,8-diamine], for which the IC50 amounted to 18 nM.

On to `CCOc1cc(-c2nnc(C)n2C)ccc1Nc1ncc2cc(C)nc(N3CC4(CCOCC4)C3)c2n1` [Example 23, N-(4-(4,5-dimethyl-4H-1,2,4-triazol-3-yl)-2-ethoxyphenyl)-6-methyl-8-(7-oxa-2-azaspiro[3.5]nonan-2-yl)pyrido[3,4-d]pyrimidin-2-amine], for which the IC50 came to 4 nM.

As for `COc1cc(-c2ncc(C)n2C)ccc1Nc1ncc2cc(C)nc(NCC(C)(C)C)c2n1` [Example 18, N2-(4-(1,5-dimethyl-1H-imidazol-2-yl)-2-methoxyphenyl)-6-methyl-N8-neopentylpyrido[3,4-d]pyrimidine-2,8-diamine], the IC50 is 4 nM.

Consider `CCOc1cc(-c2nncn2C)ccc1Nc1ncc2cc(C)nc(N3CC(C)(C#N)C3)c2n1` [Example 3, 1-(2-((2-ethoxy-4-(4-methyl-4H-1,2,4-triazol-3-yl)phenyl)amino)-6-methylpyrido[3,4-d]pyrimidin-8-yl)-3-methylazetidine-3-carbonitrile], for which the IC50 is 3 nM.

As for `Cc1cc2cnc(Nc3ccc(-c4nncn4C)cc3OC(F)F)nc2c(NCC(C)(C)C)n1` [Example 15, N2-(2-(difluoromethoxy)-4-(4-methyl-4H-1,2,4-triazol-3-yl)phenyl)-6-methyl-N8-neopentylpyrido[3,4-d]pyrimidine-2,8-diamine], the IC50 worked out at 1 nM.

Regarding `CCOc1cc(-c2nncn2C)ccc1Nc1ncc2cc(C)nc(N3CC(C)(O)C3)c2n1` [Example 9, 1-(2-((2-ethoxy-4-(4-methyl-4H-1,2,4-triazol-3-yl)phenyl)amino)-6-methylpyrido[3,4-d]pyrimidin-8-yl)-3-methylazetidin-3-ol], the half-maximal inhibitory concentration (IC50) amounted to 4 nM.

As for `CCOc1cc(-c2nncn2C)ccc1Nc1ncc2cc(C)nc(N3CC4CC4C3)c2n1` (stereo not drawn) [Example 50, 8-(3-azabicyclo[3.1.0]hexan-3-yl)-N-(2-ethoxy-4-(4-methyl-4H-1,2,4-triazol-3-yl)phenyl)-6-methylpyrido[3,4-d]pyrimidin-2-amine], the concentration for half-maximal inhibition (IC50) was 2 nM.

`COc1cc(-c2nnc(C)n2C)ccc1Nc1ncc2cc(C)nc(NCC(C)(C)C)c2n1` [Example 21, N2-(4-(4,5-dimethyl-4H-1,2,4-triazol-3-yl)-2-methoxyphenyl)-6-methyl-N8-neopentylpyrido[3,4-d]pyrimidine-2,8-diamine]: the half-inhibitory concentration (IC50) is 1 nM.

Take `COc1cc(-c2ccn(C)n2)ccc1Nc1ncc2cc(C)nc(NCC(C)(C)C)c2n1` [Example 11, N2-(2-methoxy-4-(1-methyl-1H-pyrazol-3-yl)phenyl)-6-methyl-N8-neopentylpyrido[3,4-d]pyrimidine-2,8-diamine]: the IC50 was found to be 36 nM.
